In experiment [1] the target is T1, cPLA2 (Homo sapiens, UniProt P47712).
T1 sequence (P47712 1-749): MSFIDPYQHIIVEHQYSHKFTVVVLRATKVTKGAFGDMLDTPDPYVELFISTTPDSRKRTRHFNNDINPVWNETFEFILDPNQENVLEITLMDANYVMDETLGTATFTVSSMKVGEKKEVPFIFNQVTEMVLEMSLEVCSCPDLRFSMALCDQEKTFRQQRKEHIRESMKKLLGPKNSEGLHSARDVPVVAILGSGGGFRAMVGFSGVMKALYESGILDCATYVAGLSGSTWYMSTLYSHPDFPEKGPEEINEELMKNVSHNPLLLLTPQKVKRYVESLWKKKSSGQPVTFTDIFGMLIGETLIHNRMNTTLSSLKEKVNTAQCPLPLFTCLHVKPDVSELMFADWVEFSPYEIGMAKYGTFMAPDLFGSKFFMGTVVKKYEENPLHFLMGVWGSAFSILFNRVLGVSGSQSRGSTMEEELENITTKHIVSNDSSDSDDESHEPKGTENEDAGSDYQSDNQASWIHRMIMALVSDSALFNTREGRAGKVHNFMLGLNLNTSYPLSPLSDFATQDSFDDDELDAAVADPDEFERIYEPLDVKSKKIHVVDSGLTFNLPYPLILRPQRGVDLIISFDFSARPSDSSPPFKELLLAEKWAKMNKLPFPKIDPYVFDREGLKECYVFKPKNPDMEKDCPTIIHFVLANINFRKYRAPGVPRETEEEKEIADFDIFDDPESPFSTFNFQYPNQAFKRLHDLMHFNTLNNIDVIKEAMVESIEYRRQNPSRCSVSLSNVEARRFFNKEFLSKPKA
The experiment can be described thus: Coumarin Assay (cPLA2 inhibition). Type of experiment: biochemical. The settings on record: for inhibition at 7 µM: CONCENTRATION 7 micromolar. The procedure, abridged:
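Percent inhibition at the stated concentration, from the rate of 460 nm emission rise (360 nm excitation) per minute. Reaction started by adding 4 μg enzyme to compound and 60 μM 7-hydroxycoumarinyl 6-heptenoate in Hepes buffer pH 7.5 with 1 mM EDTA.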

Experiment [2] deals with Rat Carrageenan-Induced Footpad Edema. The experiment can be described thus: Rat Carrageenan-Induced Footpad Edema Test. The class given is in vivo, male Sprague Dawley rats. Particulars: footpad volume 3 hours after carrageenan; for inhibition in vivo at 5 mg/kg: iv. For orientation: Carrageenan injected into the paw causes an acute inflammation.
Setting [3] is: CONCENTRATION 2.5 micromolar, read-out: PERCENT INHIBITION @.
Setting [4] is: Rattus norvegicus, 3 h, IV, 5 mg/Kg, read-out: PERCENT INHIBITION
The mark [5] stands for this setting: Rattus norvegicus, po, 3 h, PO, read-out: PERCENT INHIBITION

The values below come from patent US6500853B1, “Inhibitors of phospholipase enzymes” (Genetics Institute, LLC, priority 1998, dated 2002).

What is called inhibition is how much of the control response was suppressed. In the case of `COc1cc(C(=O)NS(=O)(=O)C(F)(F)F)ccc1Cc1cn(C(c2ccccc2)c2ccccc2)c2ccc(NC(=O)c3ccsc3)cc12` [Example 46, N-{1-benzhydryl-3-[2-methoxy-4-({[(trifluoromethyl)sulfonyl]amino}carbonyl)benzyl]-1H-indol-5-yl}-3-thiophenecarboxamide], the inhibition at 2.2 µM in experiment [1] (CONCENTRATION 2.2 micromolar, read-out: PERCENT INHIBITION @) was determined as 50%. Further, the inhibition at 2.5 µM in experiment [1] (setting [3]) was 67%. The inhibition at 2.7 µM in experiment [1] (CONCENTRATION 2.7 micromolar, read-out: PERCENT INHIBITION @) is 50%. The inhibition at 3.5 µM in experiment [1] (CONCENTRATION 3.5 micromolar, read-out: PERCENT INHIBITION @) is 50%. The inhibition at 4.5 µM in experiment [1] (CONCENTRATION 4.5 micromolar, read-out: PERCENT INHIBITION @) was determined as 50%. The inhibition in vivo at 5 mg/kg in experiment [2] (setting [4]) was determined as 4.58%.
For `COc1cc(C(=O)NS(C)(=O)=O)ccc1Cc1cn(C(c2ccccc2)c2ccccc2)c2ccc(NC(=O)OC3CCCC3)cc12` [Example 27, cyclopentyl N-[1-benzhydryl-3-(2-methoxy-4-{[(methylsulfonyl)amino]carbonyl}benzyl)-1H-indol-5-yl]carbamate], the inhibition at 6 µM in experiment [1] (CONCENTRATION 6 micromolar, read-out: PERCENT INHIBITION @) came to 50%. The inhibition at 6.4 µM in experiment [1] (CONCENTRATION 6.4 micromolar, read-out: PERCENT INHIBITION @) turned out to be 50%. In addition, in experiment [2] (setting [4]), the inhibition in vivo at 5 mg/kg was 6.48%.
On to `COc1cc(C(=O)NS(=O)(=O)C(F)(F)F)ccc1Cc1cn(C(c2ccccc2)c2ccccc2)c2ccc(NC(=O)OCc3ccccc3)cc12` [Example 49, benzyl N-{1-benzhydryl-3-[2-methoxy-4-({[(trifluoromethyl)sulfonyl]amino}carbonyl)benzyl]-1H-indol-5-yl}carbamate], for which the inhibition at 1.5 µM in experiment [1] (CONCENTRATION 1.5 micromolar, read-out: PERCENT INHIBITION @) was determined as 50%. The inhibition at 1.8 µM in experiment [1] (CONCENTRATION 1.8 micromolar, read-out: PERCENT INHIBITION @) was determined as 50%. Further, in experiment [1] (CONCENTRATION 2.3 micromolar, read-out: PERCENT INHIBITION @), the inhibition at 2.3 µM is 50%. The inhibition in vivo at 5 mg/kg in experiment [2] (setting [4]) turned out to be 18%.
As to `COc1cc(C(=O)O)ccc1Cc1cn(C(c2ccccc2)c2ccccc2)c2ccc(NS(=O)(=O)c3sc(NC(C)=O)nc3C)cc12` [Example 90, 4-{[5-({[2-(acetylamino)-4-methyl-1,3-thiazol-5-yl]sulfonyl}amino)-1-benzhydryl-1H-indol-3-yl]methyl}-3-methoxybenzoic acid], the inhibition at 10.2 µM in experiment [1] (CONCENTRATION 10.2 micromolar, read-out: PERCENT INHIBITION @) came out at 50%. Besides, in experiment [1] (CONCENTRATION 10.5 micromolar, read-out: PERCENT INHIBITION @), the inhibition at 10.5 µM was found to be 50%. Further, in experiment [2] (setting [5]), the inhibition in vivo at 2 mg/kg is -0.18% and the inhibition in vivo at 10 mg/kg is 2.7%.
Regarding “4-({5-[(cyclopentylcarbonyl)amino]-1-[phenyl(2-pyridinyl)methyl]-1H-indol-3-yl}methyl)-3-methoxybenzoic acid [Example 44]”, the “PERCENT INHIBITION @” value in experiment [1] (CONCENTRATION 1.65 micromolar) came out at 50%; in experiment [1] (CONCENTRATION 1.7 micromolar), 50%; in experiment [1] (CONCENTRATION 1.75 micromolar), 50%; in experiment [1] (CONCENTRATION 1.9 micromolar), 50%; in experiment [1] (CONCENTRATION 2.1 micromolar) it was 50%; in experiment [1] (CONCENTRATION 2.5 micromolar), 71%. Moreover, the “PERCENT INHIBITION @” value in experiment [1] (CONCENTRATION 6.25 micromolar) is 97%. For the same molecule, the “PERCENT INHIBITION” value in experiment [2] (IV, 5 mg/Kg) is 11.9%.
`COc1cc(C(=O)NS(=O)(=O)C(F)(F)F)ccc1Cc1cn(C(c2ccccc2)c2ccccc2)c2ccc([N+](=O)[O-])cc12` [Example 37, N-{4-[(1-benzhydryl-5-nitro-1H-indol-3-yl)methyl]-3-methoxybenzoyl}(trifluoro)methanesulfonamide]: in experiment [1] (CONCENTRATION 0.4 micromolar, read-out: PERCENT INHIBITION @), the inhibition at 0.4 µM is 50%. The inhibition at 0.5 µM in experiment [1] (CONCENTRATION 0.5 micromolar, read-out: PERCENT INHIBITION @) was determined as 50%. Also, in experiment [1] (CONCENTRATION 0.55 micromolar, read-out: PERCENT INHIBITION @), the inhibition at 0.55 µM worked out at 50%. Also, the inhibition at 0.65 µM in experiment [1] (CONCENTRATION 0.65 micromolar, read-out: PERCENT INHIBITION @) is 50%. Also, in experiment [2] (setting [5]), the inhibition in vivo at 2 mg/kg is -7.94% and the inhibition in vivo at 10 mg/kg is 3.36%.
In the case of `O=C(Nc1cccc(C(=O)O)c1)C(=O)c1cn(Cc2ccc(OCc3ccccc3)c(OCc3ccccc3)c2)c2ccccc12` [Example 63, 3-[(2-{1-[3,4-bis(benzyloxy)benzyl]-1H-indol-3-yl}-2-oxoacetyl)amino]benzoic acid], the inhibition at 2.5 µM in experiment [1] (setting [3]) came out at 70%. Besides, the inhibition at 7 µM in experiment [1] (read-out: PERCENT INHIBITION @) was found to be 50%. Further, the inhibition in vivo at 5 mg/kg in experiment [2] (setting [4]) worked out at 19.6%.
For the molecule `CS(=O)(=O)NC(=O)/C=C/c1cn(C(c2ccccc2)c2ccccc2)c2ccc([N+](=O)[O-])cc12` [Example 87B, N-((E)-3-{1-benzhydryl-5-nitro-1H-indol-3-yl}-2-propenoyl)methanesulfonamide], in experiment [1] (CONCENTRATION 38 micromolar, read-out: PERCENT INHIBITION @), the inhibition at 38 µM was determined as 50%. Also, the inhibition at 42.5 µM in experiment [1] (CONCENTRATION 42.5 micromolar, read-out: PERCENT INHIBITION @) turned out to be 50%. The inhibition in vivo at 3 mg/kg in experiment [2] (Rattus norvegicus, po, 3 h, PO, 3 mg/Kg, read-out: PERCENT INHIBITION) was determined as 17.9%. Moreover, the inhibition in vivo at 10 mg/kg in experiment [2] (setting [5]) worked out at 31.4%.
In the case of `COc1cc(C(=O)NS(=O)(=O)C(F)(F)F)ccc1Cc1cn(C(c2ccccc2)c2ccccc2)c2ccc(Br)cc12` [Example 39, N-{4-[(1-benzhydryl-5-bromo-1H-indol-3-yl)methyl]-3-methoxybenzoyl}(trifluoro)methanesulfonamide], the inhibition at 0.39 µM in experiment [1] (CONCENTRATION 0.39 micromolar, read-out: PERCENT INHIBITION @) was found to be 50%. Moreover, in experiment [1] (CONCENTRATION 0.7 micromolar, read-out: PERCENT INHIBITION @), the inhibition at 0.7 µM turned out to be 50%. Also, the inhibition at 0.73 µM in experiment [1] (CONCENTRATION 0.73 micromolar, read-out: PERCENT INHIBITION @) was 50%. In addition, the inhibition at 0.75 µM in experiment [1] (CONCENTRATION 0.75 micromolar, read-out: PERCENT INHIBITION @) was found to be 50%. The inhibition at 0.8 µM in experiment [1] (CONCENTRATION 0.8 micromolar, read-out: PERCENT INHIBITION @) amounted to 50%. Besides, the inhibition at 0.9 µM in experiment [1] (CONCENTRATION 0.9 micromolar, read-out: PERCENT INHIBITION @) turned out to be 50%. Moreover, the inhibition at 1 µM in experiment [1] (CONCENTRATION 1 micromolar, read-out: PERCENT INHIBITION @) came out at 50%. Further, in experiment [1] (CONCENTRATION 1.2 micromolar, read-out: PERCENT INHIBITION @), the inhibition at 1.2 µM was 50%. The inhibition at 1.3 µM in experiment [1] (CONCENTRATION 1.3 micromolar, read-out: PERCENT INHIBITION @) was found to be 50%. Moreover, the inhibition at 1.6 µM in experiment [1] (CONCENTRATION 1.6 micromolar, read-out: PERCENT INHIBITION @) was determined as 50%. For the same molecule, in experiment [2] (setting [5]), the inhibition in vivo at 2 mg/kg was determined as 1.98% and the inhibition in vivo at 10 mg/kg was -7.16%.
As for `O=C(Cc1cn(Cc2ccc(Cc3ccccc3)cc2)c2ccc(OCc3ccccc3)cc12)Nc1cccc(C(=O)O)c1` [Example 105, 3-({2-[1-(4-benzylbenzyl)-5-(benzyloxy)-1H-indol-3-yl]acetyl}amino)benzoic acid], in experiment [1] (CONCENTRATION 2.4 micromolar, read-out: PERCENT INHIBITION @), the inhibition at 2.4 µM was 50%. Further, the inhibition at 7 µM in experiment [1] (read-out: PERCENT INHIBITION @) turned out to be 50%. In addition, the inhibition at 10 µM in experiment [1] (CONCENTRATION 10 micromolar, read-out: PERCENT INHIBITION @) worked out at 74%. The inhibition in vivo at 5 mg/kg in experiment [2] (setting [4]) was found to be 1.51%.
Take `COc1cc(C(=O)O)ccc1Cc1cn(C2CCCC2)c2ccc(NC(=O)OC3CCCC3)cc12` [Example 8, 4-[(1-cyclopentyl-5-{[(cyclopentyloxy)carbonyl]amino}-1H-indol-3-yl)methyl]-3-methoxybenzoicacid]: the inhibition at 65 µM in experiment [1] (CONCENTRATION 65 micromolar, read-out: PERCENT INHIBITION @) stood at 50%. For the same molecule, the inhibition at 100 µM in experiment [1] (CONCENTRATION 100 micromolar, read-out: PERCENT INHIBITION @) was found to be 44%. Besides, in experiment [2] (setting [4]), the inhibition in vivo at 5 mg/kg was -5.7%.
